The nature of test [1]: The compound was tested for inhibitory activity against 5-Lipoxygenase in guinea pig polymorphonuclear leukocytes.
Test [2] has as its target Polyunsaturated fatty acid 5-lipoxygenase (Mus musculus) (UniProt P48999). Description: The compound was tested for inhibitory activity against 5-lipoxygenase in mouse.

In general, IC50 refers to the concentration that gives 50% inhibition. Low readings indicate greater potency in that assay, high ones weaker potency in that assay.

Chain of Polyunsaturated fatty acid 5-lipoxygenase (Mus musculus) (P48999 whole entry, looked up): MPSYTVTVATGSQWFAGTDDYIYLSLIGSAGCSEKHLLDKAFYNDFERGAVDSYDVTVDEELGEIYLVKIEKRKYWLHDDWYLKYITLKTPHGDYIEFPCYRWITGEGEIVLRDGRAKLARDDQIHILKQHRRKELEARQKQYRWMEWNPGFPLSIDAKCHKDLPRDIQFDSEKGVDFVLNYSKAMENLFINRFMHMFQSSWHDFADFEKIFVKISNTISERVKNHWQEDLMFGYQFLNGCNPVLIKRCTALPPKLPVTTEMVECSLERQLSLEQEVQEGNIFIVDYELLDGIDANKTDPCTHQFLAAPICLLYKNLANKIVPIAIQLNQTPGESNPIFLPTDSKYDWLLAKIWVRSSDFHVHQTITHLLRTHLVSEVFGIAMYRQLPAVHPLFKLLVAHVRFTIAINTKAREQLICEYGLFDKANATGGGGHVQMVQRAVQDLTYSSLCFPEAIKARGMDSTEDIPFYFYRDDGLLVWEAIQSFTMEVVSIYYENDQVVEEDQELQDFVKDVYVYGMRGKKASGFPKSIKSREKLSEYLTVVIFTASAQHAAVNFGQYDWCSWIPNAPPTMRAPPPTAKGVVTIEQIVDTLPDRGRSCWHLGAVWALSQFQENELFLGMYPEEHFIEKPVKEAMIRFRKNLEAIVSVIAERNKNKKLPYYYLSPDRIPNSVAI

`Cc1ccc(C)n1-c1ccc(/C=C/CC(=O)N(C)O)cc1`: the IC50 in test [1] is 600 nM.

As for `Cc1nc(NCCCCCCc2ccccc2)nc(C)c1O`, the IC50 in test [2] was 300 nM.

(Values after BindingDB's records for doi:10.1021/jm00092a001 (Wyeth-Ayerst Research, 1992).)
